Test results published in patent US6482654B1, “Method of detecting shikimic acid” (Syngenta Limited, priority 2000, dated 2002).

Tested on: plants
Assay: Shikimic acid/shikimate accumulation in glyphosate-treated plants, periodate/sulfite chromophore assay
Type: in vivo
Settings: plants treated with a lethal amount of glyphosate; 5-10 μL of extract of about 150 mg leaf tissue in 8-fold (w/v) 0.25N hydrochloric acid; 1 ml final solution; control about 0.1 AU
Experimental: In the performance of the methods of the invention, for detection of the chromophore, it is preferable to have an absorbance of at least 0.05 absorbance units (AU) for the untreated control plant test sample and an absorbance of less than 2.0 AU for the test sample with the greatest amount of shikimic acid/shikimate in order to obtain optimal results from spectrophotometric measurement of the chromophore. […] After reaction with the periodate reagent and quenching by 0.5 ml of a mixture comprising sulfite and sodium hydroxide, there was 1 ml of solution with an absorbance of about 1.8 AU, while an untreated control plant gave an absorbance of about 0.1 AU.

O=C(O)CNCP(=O)(O)O [glyphosate, N-(phosphonomethyl) glycine]
absorbance of the chromophore (shikimic acid/shikimate accumulated): about 1.8 AU
